# Data from US20080200491A1, “1,2-Dihydro-Spiro[3H-Indole-3,4'-Piperidine] Compounds, as Modulators of the Mas Receptor Novel” (priority 2005, published 2008).
# Entries after “also recorded” stand apart in the source; their conditions may differ.
# What was measured:
# Mas receptor [1] = conditions: Santos et al., PNAS 2003; cited from earlier work
# Mas receptor [2] = target: T1, Mas receptor (Homo sapiens, UniProt P04201); test: Mas receptor IP3 assay (inverse agonist assay); type: cell-based; design: expressed in transfected cells; conditions: for IC50: n = 2
# T1 sequence (P04201 1-325): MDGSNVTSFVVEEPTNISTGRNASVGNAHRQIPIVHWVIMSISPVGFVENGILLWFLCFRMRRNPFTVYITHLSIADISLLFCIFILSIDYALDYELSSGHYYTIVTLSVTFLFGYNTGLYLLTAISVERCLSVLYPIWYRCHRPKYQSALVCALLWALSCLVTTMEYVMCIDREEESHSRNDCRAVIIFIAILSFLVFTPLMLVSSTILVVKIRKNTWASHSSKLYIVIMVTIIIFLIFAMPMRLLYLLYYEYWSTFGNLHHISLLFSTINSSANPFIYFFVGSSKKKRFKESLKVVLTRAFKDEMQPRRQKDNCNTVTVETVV
# Description: The Mas receptor IP3 assay was performed using a mammalian cell line (HEK293) which was transfected with a plasmid containing the human Mas receptor and selected for stable expression of the receptor. […] To achieve this, Mas receptor expression levels were increased by transiently transfecting the same Mas receptor stable cell line with additional human Mas receptor plasmid DNA following standard procedures. These cells were used in the Mas receptor IP3 assay approximately 24 hours post-transfection.
# Cells were split into 96-well plates (50,000 cells/well) and allowed to attach for a period of 6 hours. The growth medium was then replaced with medium supplemented with 4 μCi/mL [3H]myo-inositol (100 μl; Perkin Elmer Life Sciences) and the cells were allowed to incubate for approximately 20 hours. Test compounds were serially diluted in inositol-free media containing 10 mM LiCl. The media in the plates was removed by aspiration, replaced with these test compound solutions and incubated at 37° C. for 1 hour.
# Following this incubation, the media was removed by aspiration and replaced with buffer containing 0.1M formic acid. The plates were then frozen overnight at −80° C. to achieve complete cell lysis.
# The following day, the assay plates were thawed at room temperature. The thawed contents were then transferred to 96-well filter plates (Nillipore, Multiscreen) pre-loaded with resin (Biorad, AG1-X8 100-200 mesh, formate form). The plate was filtered using a vacuum manifold and the resin was washed multiple times with water. An elution buffer was then applied (200 μl, 0.2M Ammonium formate/0.1M formic acid) and the resulting eluent was collected, under vacuum, in a 96-well collection plate. Aliquots of the eluent (80 μl) were transferred to filter plates (Whatman, Unifilter GF/C) and dried in a 45° C. oven overnight. Dried plates were counted on a scintillation counter following the addition of an appropriate scintillant (Perkin Elmer Life Sciences, Optiphase Supermix or Hi-Safe 3).
# Mas receptor [3] = target: T1, Mas receptor; conditions: Dong et al., Cell 2001; cited from earlier work
# isolated rat hearts = test: Ischemia-reperfusion assay in isolated adult rat hearts (Langendorff apparatus)
# Description: Male Sprague-Dawley rats (300-350 g body weight) were anesthetized with Inactin (100 mg/kg IP) 20 minutes prior to surgery. The chest wall was opened and the heart was rapidly excised and immediately placed into ice-cold Krebs-Henseleit (KH) buffer (118 mM NaCl, 4.7 mM KCl, 1.2 mM MgSO4, 1.2 mM KH2PO4, […], 25 mM NaHCO3, 11 mM glucose, 1 mM pyruvate, and 0.005 mM EDTA) to produce cardiac arrest. The aorta was then cannulated and the heart retrogradely perfused with KH buffer maintained at 37° C. in a reservoir bubbled with 95% O2/5% CO2 (pH7.4) on the Langendorff apparatus at a constant pressure of 70 mmHg. Myocardial temperature was maintained at 37° C. by partially submerging the heart into a water-jacketed chamber filled with KH buffer. A water filled latex balloon attached to a metal cannula and inserted into the left ventricle via the mitral valve and connected to a pressure transducer (Powerlab, ADInstruments, Inc) was used for measurement of left ventricular pressure. The balloon was initially inflated to an end-diastolic pressure of 10 mmHg. After allowing 20 minutes for equilibration, rat hearts were subjected to 10 minutes of KH buffer containing drug or vehicle followed by 30 minutes of ischemia followed by 30 minutes of reperfusion. The difference between peak-systolic and end diastolic pressures, or left ventricular developed pressure (LVDP) was calculated as an index of contractile function and measured just prior to ischemia and at 10, and 30 minutes of reperfusion. Percent recovery of LV function [(LVDP post reperfusion/LVDP pre-ischemia)[…]] was averaged across 5 vehicle and 4 drug treated hearts and one-way anova with Newman-Keuls Multiple Comparison Test was used to determine statistical significance.
# Epicardial electrogram recordings were also taken from the isolated rat hearts used in FIGS. 2 and 3. Briefly, silver wire electrodes were placed on the right atrium and the apex of the left ventricle, allowing an epicardial electrogram to be recorded. Premature ventricular contraction (PVC), ventricular tachycardia and ventricular fibrillation were common arrhythmias observed during reperfusion following 30 minutes of global ischemia. Hearts were considered positive for reperfusion arrhythmias if ventricular arrhythmias were sustained for greater than 30 seconds during the first 5 minutes of reperfusion.
# blood pressure in rats = test: Blood pressure measurement in rats by telemetry; type: in vivo, rat; conditions: conscious rats, IP injection, FIG. 5
# Description: Cardiac parameters were measured by small transmitting devices, (Data Sciences PhysioTel Telemetry devices), implanted in rats. The implanted transmitting devices were used to measure blood pressure in freely moving conscious animals. There are no external connections or tethering devices that can inhibit animal movement and induce unnecessary stress, which can affect the outcome of a study.
# This procedure was performed under modified aseptic conditions. Rats were anesthetized with Isoflurane gas that ranged in concentration from 1.5-2.0%. A cardiac telemetry device was implanted into the peritoneal cavity with a pressure sensing catheter situated no more than 2 cm inside the descending aorta. This was accomplished as follows: The rat was shaved and the incision site was prepared with an iodine solution. The rat was then placed on a heating pad to maintain a constant body temp of 38+/−0.5° C., and covered with a sterile drape. A 6 cm midline abdominal incision was made to provide access to the implantation area. […] The rats were monitored for 7 days to ensure proper recovery.
# On the test day, injections with either vehicle or with test compound were administered via IP injection in volumes of ˜250 μl. Animals were monitored with a resolution of approximately one measurement/min for 60 minutes before injection of vehicle or compound and for about 120 minutes after injection.
# [4] = tested on: isolated rat aortic rings; test: Angiotensin II induced vasoconstriction in isolated rat aortic rings; conditions: pretreatment 15 min; Angiotensin II 1 uM; same doses also tested against norepinephrine 1 uM; FIG. 6
# Description: Sprague-Dawley rats (250-300 g) were euthanized via CO2 chamber. […] The excess adventitial tissue was carefully removed and the endothelium was sloughed off by rinsing with buffer via syringe. The vessel was then cut into 2-3 mm rings and mounted on wire stirrups connected to force transducers (World Precision Instruments, Myobath 4 channel system, FORT-10) to record changes in isometric force. The aortic rings were then placed in 15 mL organ baths filled with buffer at 37° C. with continuous aeration (95% O2 and 5% CO2)
# The rings were left to equilibrate in buffer for 30 minutes. A resting tension of 4 g was applied and the rings were allowed to equilibrate for 1 hour. During the equilibration period, the buffer was changed every 30 minutes. After equilibration was complete, the aortic rings were tested for viability and maximal contraction response by addition of 50 mM KCl.
# Aortic rings were contracted with AngiotensinII (1 uM) Sigma, St Louis, Mo. and the isometric force recorded. […] The aortic rings were then treated with the agonist, AngiotensinII (1 uM), and the change in isometric force was recorded. […]
# Data for each group (Compound S75 concentration) was from n=4 aortic rings. Change in aortic tension after AngiotensinII treatment was expressed as a percentage to 50 mM KCL in order to normalize tension for each aortic ring.
compound,measurement,setting,value
"DRVYIHP [Ang (1-7), H-Asp-Arg-Val-Tyr-Ile-His-Pro-OH]",Kd,Mas receptor [1],0.33 nM
"CCCN1CCC2(CC1)CN(C(=O)c1c(F)cccc1F)c1ccc(C(C)(C)C)cc12 [Compound 4, 1′-(propyl)-1,2-dihydro-5-tert-butyl-1-(2,6-difluoro-benzoyl)-spiro[3H-indole-3,4′-piperidine]]",IC50,Mas receptor [2],35.1 nM
"a peptide called NPFF, reported to bind the Mas receptor weakly and NPFF1/NPFF2 with high affinity",EC50,Mas receptor [3],~400 nM
"C=CCN1CCC2(CC1)CN(C(=O)c1cccc(F)c1F)c1ccc(F)cc12 [Compound S75, 1′-(allyl)-1,2-dihydro-5-fluoro-1-(2,3-difluoro-benzoyl)-spiro[3H-indole-3,4′-piperidine]]",mode of action at the Mas receptor,Mas receptor [2]; FIG. 1,inverse agonist
same,left ventricle function after reperfusion compared to vehicle treatment,"isolated rat hearts; 30 μM, 30 min ischemia, 30 min reperfusion, FIG. 2",significant increase in left ventricle function
same,level of left ventricle function after reperfusion versus level before ischemia,"isolated rat hearts; 30 μM, FIG. 2",comparable to the level before ischemia
same,ischemic contracture: end diastolic pressure (EDP) compared to vehicle treatment,"isolated rat hearts; 30 μM, FIG. 3",significant decrease in end diastolic pressure
same,early reperfusion arrhythmias,"isolated rat hearts; ventricular arrhythmias sustained > 30 seconds during first 5 minutes of reperfusion, FIG. 4",none of the four hearts
same,change in blood pressure after treatment,blood pressure in rats,does not raise blood pressure; also recorded: did not result in a significant change in blood pressure
same,inhibition of angiotensin II induced vasoconstriction,[4],potent and selective inhibition
"CC(C)c1ccc2c(c1)C1(CCN(CCC(F)(F)F)CC1)CN2C(=O)c1c(F)cccc1F [Compound 1, 1′-(3,3,3-trifluoro-propyl)-1,2-dihydro-5-isopropyl-1-(2,6-difluoro-benzoyl)-spiro[3H-indole-3,4′-piperidine]]",IC50,Mas receptor [2],28.6 nM
"angiotensin II: known vasoconstrictor peptide, control compound in the blood pressure study (DRVYIHPF; Angiotensin-2; UniProt P01019 25-32, looked up) [reference compound]",change in blood pressure after treatment,blood pressure in rats,significant increase in blood pressure
